# From US20040068113A1, “Substituted polycyclic aryl and heteroaryl pyridines useful for selective inhibition of the coagulation cascade” (priority 2003, published 2004)
# Experiments:
# Format in all cases: biochemical
# [1] = molecular target: T1, Trypsin (type 1× from porcine pancreas) (Sus scrofa, UniProt P00761); assay: Trypsin Assay; details: read-out: Trpysin II IC50
# T1 construct: Trypsin (5 ug/ml; type 1× from porcine pancreas); purchased Sigma, St. Louis Mo; host or cells: porcine pancreas
# Protocol: Trypsin (5 ug/ml; type 1× from porcine pancreas) and 0.375 mM N-α-Benzoyl-L-arginine-p-nitroanilide (L-BAPNA) are added to a 96-well assay plate containing either inhibitor or buffer (50 mM Tris-HCl, pH 8.0, 100 mM NaCl, 0.1% BSA). The reactions, in a final volume of 100 ul are measured immediately at 405 nm to determine background absorbance. The plate is incubated at room temperature for 60 min, at which time the rate of hydrolysis of the substrate is measured by monitoring the reaction at 405 nm for the release of p-nitroaniline. Percent inhibition of trypsin activity is calculated from OD405 nm value from the experimental and control sample.
# (§1) Recombinant soluble TF, consisting of amino acids 1-219 of the mature protein sequence was expressed in E. coli and purified using a Mono Q Sepharose FPLC. Recombinant human VIIa was purchased from American Diagnostica, Greenwich Conn. and chromogenic substrate N-Methylsulfonyl-D-phe-gly-arg-p-nitroaniline was prepared by American Peptide Company, Inc., Sunnyvale, Calif. Factor Xa was obtained from Enzyme Research Laboratories, South Bend Ind., thrombin from Calbiochem, La Jolla, Calif., and trypsin and L-BAPNA from Sigma, St. Louis Mo. The chromogenic substrates S-2765 and S-2238 were purchased from Chromogenix, Sweden.
# Human thrombin = Human thrombin (Homo sapiens, UniProt P00734); assay: Thrombin Assay; details: read-out: Thrombin II IC50
# Protocol: (§2) Human thrombin (0.28 nm)and 0.06 mM H-D-Phenylalanyl-L-pipecolyl-L-arginine-p-nitroaniline dihydrochloride are added to a 96-well assay plate containing either inhibitor or buffer (50 mM Tris-HCl, pH 8.0, 100 mM NaCl, 0.1% BSA). The reaction, in a final volume of 100 ul is measured immediately at 405 nm to determine background absorbance. The plate is incubated at room temperature for 60 min, at which time the rate of hydrolysis of the substrate is measured by monitoring the reaction at 405 nm for the release of p-nitroaniline. Percent inhibition of thrombin activity is calculated from OD405nm value from the experimental and control sample.
# as §1
# Human factor Xa = molecular target: T2, Human factor Xa (Homo sapiens, UniProt P00742); assay: Xa Assay
# T2 construct: purchased Enzyme Research Laboratories, South Bend Ind
# Protocol: as §2, with “factor Xa (0.3 nM) and 0.15” for “thrombin (0.28 nm)and 0.06”, “N-a-Benzyloxycarbonyl-D-arginyl-L-glycyl-L-arginine-p-nitroaniline-dihydrochloride (S-2765)” for “H-D-Phenylalanyl-L-pipecolyl-L-arginine-p-nitroaniline dihydrochloride”, “Xa” for “thrombin”, “OD405 nm” for “OD405nm”
# as §1
# [2] = molecular target: T3, recombinant soluble tissue factor and recombinant human factor VIIa (TF-VIIa) (Homo sapiens, UniProt P08709); assay: TF-VIIa Assay
# T3 construct: purchased American Diagnostica, Greenwich Conn; host or cells: soluble TF made in house in E. coli
# Protocol: as §2, with “In this assay 100 nM recombinant soluble tissue factor and 2 nM recombinant human factor VIIa” for “Human thrombin (0.28 nm)and 0.06 mM H-D-Phenylalanyl-L-pipecolyl-L-arginine-p-nitroaniline dihydrochloride”, “containing 0.4 mM of the substrate, N-Methylsulfonyl-D-phe-gly-arg-p-nitroaniline and” for “containing”, “(5 mM CaCl2, 50” for “(50”, “TF-VIIa” for “thrombin”, “OD405 nm” for “OD405nm”
# as §1
# [3] = read-out: Factor Xa percent inhibition
# T1 sequence (P00761 9-231): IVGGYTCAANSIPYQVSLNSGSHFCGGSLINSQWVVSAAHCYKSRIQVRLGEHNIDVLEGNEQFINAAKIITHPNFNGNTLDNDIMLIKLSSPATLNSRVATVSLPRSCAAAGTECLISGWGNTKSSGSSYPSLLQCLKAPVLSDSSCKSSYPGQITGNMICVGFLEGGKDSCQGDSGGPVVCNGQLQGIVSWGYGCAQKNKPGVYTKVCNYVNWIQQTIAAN
# T3 sequence (P08709 213-466 limits assumed): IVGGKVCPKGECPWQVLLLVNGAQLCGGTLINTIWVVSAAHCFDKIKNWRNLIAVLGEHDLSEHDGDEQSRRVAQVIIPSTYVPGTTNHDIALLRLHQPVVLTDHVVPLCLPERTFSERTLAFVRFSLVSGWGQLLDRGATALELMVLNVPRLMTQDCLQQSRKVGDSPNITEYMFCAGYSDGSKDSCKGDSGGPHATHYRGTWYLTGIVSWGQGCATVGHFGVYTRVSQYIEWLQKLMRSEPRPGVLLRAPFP
# T3 sequence (P08709 61-212 limits assumed): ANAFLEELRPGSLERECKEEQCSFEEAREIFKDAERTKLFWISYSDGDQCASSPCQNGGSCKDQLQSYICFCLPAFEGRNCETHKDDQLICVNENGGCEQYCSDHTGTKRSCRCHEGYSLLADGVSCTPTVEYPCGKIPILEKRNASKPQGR
# T3 sequence (P13726 33-251 partner limits assumed): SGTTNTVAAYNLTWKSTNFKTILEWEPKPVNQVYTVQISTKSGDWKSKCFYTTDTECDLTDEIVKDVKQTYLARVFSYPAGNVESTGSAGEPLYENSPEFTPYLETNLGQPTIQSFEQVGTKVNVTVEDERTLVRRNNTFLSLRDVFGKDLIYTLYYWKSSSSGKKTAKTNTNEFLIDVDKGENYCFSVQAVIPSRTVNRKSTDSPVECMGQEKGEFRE
# T2 sequence (P00742 235-488 limits assumed): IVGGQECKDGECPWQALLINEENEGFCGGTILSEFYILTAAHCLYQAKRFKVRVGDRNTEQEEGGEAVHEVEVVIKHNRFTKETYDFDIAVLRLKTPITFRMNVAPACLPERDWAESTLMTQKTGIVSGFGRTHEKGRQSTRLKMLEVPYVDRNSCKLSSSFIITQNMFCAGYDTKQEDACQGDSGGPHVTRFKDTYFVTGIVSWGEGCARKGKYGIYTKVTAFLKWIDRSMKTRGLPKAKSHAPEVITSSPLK
# T2 sequence (P00742 41-179 limits assumed): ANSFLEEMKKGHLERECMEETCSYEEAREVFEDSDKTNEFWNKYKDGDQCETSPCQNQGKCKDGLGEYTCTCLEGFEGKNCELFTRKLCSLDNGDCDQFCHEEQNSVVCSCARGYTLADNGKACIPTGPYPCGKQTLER
Structure (SMILES),IC50 [1],IC50 (Human thrombin),inhibition at 30 µM (Human factor Xa; [3]),IC50 [2],IC50 (Human factor Xa),"inhibition at 100 µM (Human factor Xa; @ 100 uM, read-out: Factor Xa percent inhibition)","inhibition at 100 µM ([2]; at 100 uM, read-out: TF-VIIA percent inhibition)"
N=C(N)c1ccc(CNC(=O)Cc2nc(NC3CCC3)ccc2-c2cccc(N)c2)cc1 [Example 1],0.06 µM,0.71 µM,27%,2.46 µM,–,–,–
CC(C)Nc1ccc(-c2ccccc2OCc2ccccc2)c(CC(=O)NCc2ccc(C(=N)N)cc2)[n+]1[O-] [Example 5],0.1 µM,0.37 µM,–,2.38 µM,> 100 µM,–,–
CC(C)Nc1ccc(-c2cccc(CO)c2)c(CC(=O)NCc2ccc(C(=N)N)cc2)[n+]1[O-] [Example 9],0.21 µM,6.6 µM,–,1.72 µM,> 100 µM,–,–
CC(C)Nc1ccc(-c2csc3ccccc23)c(CC(=O)NCc2ccc(C(=N)N)cc2)[n+]1[O-] [Example 11],0.079 µM,39.5 µM,–,5.6 µM,21 µM,–,–
CC(C)Nc1ccc(/C=C/c2ccccc2)c(CC(=O)NCc2ccc(C(=N)N)cc2)[n+]1[O-] [Example 12],0.99 µM,29 µM,–,–,–,–,23%
CC(C)Nc1ccc(-c2ccccc2CN2C(=O)c3ccccc3C2=O)c(CC(=O)NCc2ccc(C(=N)N)cc2)[n+]1[O-] [Example 13],0.121 µM,12 µM,–,1.42 µM,> 100 µM,–,–
CC(C)Nc1ccc(-c2cccc(N)c2)c(CC(=O)NCc2ccc(C(=N)N)cc2)[n+]1[O-] [Example 14],< 0.14 µM,9.9 µM,–,0.155 µM,> 100 µM,–,–

# More lines, in order of falling IC50 [1], values ahead:
IC50 [1],IC50 (Human thrombin),inhibition at 30 µM (Human factor Xa; [3]),IC50 [2],IC50 (Human factor Xa),"inhibition at 100 µM (Human factor Xa; @ 100 uM, read-out: Factor Xa percent inhibition)","inhibition at 100 µM ([2]; at 100 uM, read-out: TF-VIIA percent inhibition)",Structure (SMILES)
0.17 µM,86.5 µM,–,6.94 µM,> 100 µM,–,–,CC(C)Nc1ccc(-c2ccccc2Oc2ccccc2)c(CC(=O)NCc2ccc(C(=N)N)cc2)[n+]1[O-] [Example 6]
0.158 µM,> 100 µM,–,0.72 µM,> 100 µM,–,–,CC(C)Nc1ccc(-c2cc(N)cc(C(=O)O)c2)c(CC(=O)NCc2ccc(C(=N)N)cc2)[n+]1[O-] [Example 3]
0.035 µM,3 µM,–,1.7 µM,–,40%,–,CC(=O)c1cccc(-c2ccc(NC(C)C)[n+]([O-])c2CC(=O)NCc2ccc(C(=N)N)cc2)c1 [Example 10]
0.022 µM,60.7 µM,–,0.084 µM,–,–,–,CC(C)Nc1ccc(-c2cc(N)cc(N)c2)c(CC(=O)NCc2ccc(C(=N)N)cc2)[n+]1[O-] [Example 7]
0.02 µM,7.13 µM,26%,0.07 µM,–,–,–,N=C(N)c1ccc(CNC(=O)Cc2c(-c3cccc(N)c3)ccc(NC3CCC3)[n+]2[O-])cc1 [Example 2]
